Measurements taken from US7235557B2, “Compounds and their uses” (MGI GP, Inc., priority 2000, dated 2007).

Target: T1, purified recombinant human PARP (Homo sapiens, UniProt P09874)
T1 construct: purchased Trevigan (Gaithersburg, Md.)
Test: PARP enzyme assay (IC50)
Format: biochemical
Settings: IC50 (μM), approximate IC50 values, [3H]NAD
Protocol: The reaction is initiated by adding enzyme and incubating the mixture at 25° C. After 2 minutes of incubation, the reaction is terminated by adding 500 microliters of ice cold 30% (w/v) trichloroacetic acid. The precipitate formed is transferred onto a glass fiber filter Packard Unifilter-GF/C) and washed three times with 70% ethanol. After the filter is dried, the radioactivity is determined by scintillation counting.

T1 sequence (P09874 whole entry): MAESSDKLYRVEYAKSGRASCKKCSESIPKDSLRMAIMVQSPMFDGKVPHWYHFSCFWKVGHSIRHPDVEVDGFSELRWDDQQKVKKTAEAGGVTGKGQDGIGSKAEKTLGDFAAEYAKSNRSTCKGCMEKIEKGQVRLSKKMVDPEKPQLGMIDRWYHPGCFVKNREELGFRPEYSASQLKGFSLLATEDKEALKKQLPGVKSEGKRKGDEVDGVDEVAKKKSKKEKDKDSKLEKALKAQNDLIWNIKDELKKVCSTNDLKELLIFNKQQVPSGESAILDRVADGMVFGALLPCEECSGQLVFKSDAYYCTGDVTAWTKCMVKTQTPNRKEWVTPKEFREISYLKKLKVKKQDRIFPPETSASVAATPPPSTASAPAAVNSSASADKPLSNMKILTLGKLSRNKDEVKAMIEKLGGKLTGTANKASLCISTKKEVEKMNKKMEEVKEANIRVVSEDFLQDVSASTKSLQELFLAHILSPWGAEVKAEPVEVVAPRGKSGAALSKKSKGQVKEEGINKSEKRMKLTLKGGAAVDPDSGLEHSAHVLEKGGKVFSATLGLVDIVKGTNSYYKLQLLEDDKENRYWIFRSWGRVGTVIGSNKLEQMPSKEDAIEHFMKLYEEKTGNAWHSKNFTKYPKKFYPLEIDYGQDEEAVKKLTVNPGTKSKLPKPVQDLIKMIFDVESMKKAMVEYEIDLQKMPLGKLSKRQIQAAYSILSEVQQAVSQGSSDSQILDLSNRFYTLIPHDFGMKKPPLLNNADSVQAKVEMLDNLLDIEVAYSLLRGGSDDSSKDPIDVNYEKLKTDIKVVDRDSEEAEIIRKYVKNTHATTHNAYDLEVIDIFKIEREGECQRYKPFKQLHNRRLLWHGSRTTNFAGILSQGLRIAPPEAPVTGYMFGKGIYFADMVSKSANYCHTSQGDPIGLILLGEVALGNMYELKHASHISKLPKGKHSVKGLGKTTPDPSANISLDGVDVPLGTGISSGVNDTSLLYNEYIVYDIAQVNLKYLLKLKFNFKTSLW

In order of falling IC50:
1. Cc1nc2cccc3c2n1CCNC3=O  0.141 µM
2. O=C1NCCn2c(Cc3ccccc3)nc3cccc1c32  0.108 µM
3. O=c1[nH]c2ccc(N3C[C@@H]4C[C@H]3CN4)nc2c2ccccc12  0.042 µM

Same assay, conditions: approximate IC50 values, [3H]NAD, read-out: IC50

In order of falling IC50:
1. CC(C)(C)OC(=O)Cn1c(Br)c2c3c(cccc31)C(=O)NN=C2  24.1 µM
2. O=C1NN=Cc2c(Br)n(Cc3ccccc3)c3cccc1c23  20 µM
3. CC(C)(C)OC(=O)n1cc2c3c(cccc31)C(=O)NCC2  20 µM
4. O=c1[nH]c2ccc(OCc3ccccc3)nc2c2ccccc12  20 µM
5. O=C1NN=Cn2cnc3cccc1c32  20 µM
6. O=C1NCCn2c(CN(CCc3ccccc3)Cc3ccccc3)nc3cccc1c32  10.5 µM
7. COc1ccc2c(c1)c(=O)[nH]c1cccnc12  4.15 µM
8. O=C1NCCN2CCc3cccc1c32  2.41 µM
9. O=C1NCCn2c(CN3CCN(Cc4ccccc4)CC3)nc3cccc1c32  2.19 µM
10. O=c1[nH]c2ccc(Cl)nc2c2ccccc12  2.1 µM
11. O=C1NCCn2c(CN3CCN(c4ccccc4)CC3)nc3cccc1c32  1.9 µM
12. CCCCN(CCCC)Cc1nc2cccc3c2n1CCNC3=O  1.75 µM
13. CN1CCN(Cc2nc3cccc4c3n2CCNC4=O)CC1  1.57 µM
14. O=C(O)CCc1nc2cccc3c2n1CCNC3=O  1.44 µM
15. CN(CCC1CCCN1C)C(=O)c1cccc(-c2nc3cccc4c3n2CCNC4=O)c1 (stereo not shown)  1.24 µM
16. CC(C)(C)OC(=O)n1cc2c3c(cccc31)C(=O)NN=C2  1.2 µM
17. O=C(O)c1ccc(-c2nc3cccc4c3n2CCNC4=O)cc1  1.19 µM
18. O=C1NCCn2c(CN3CCCCCC3)nc3cccc1c32  1 µM
19. O=C1NCCn2c(-c3ccc(-c4ccc(Cl)cc4)o3)nc3cccc1c32  0.96 µM
20. CCCCCN(CCCCC)Cc1nc2cccc3c2n1CCNC3=O  0.915 µM
21. CCCCCCN(CCCCCC)Cc1nc2cccc3c2n1CCNC3=O  0.915 µM
22. O=C1NCCn2c(CN3CCCc4ccccc43)nc3cccc1c32  0.818 µM
23. O=C1NCCn2c(CN3CCCCC3)nc3cccc1c32  0.801 µM
24. O=C1NCCn2c(Cn3ccnc3)nc3cccc1c32  0.738 µM
25. COc1cc2c(cc1OC)CN(Cc1nc3cccc4c3n1CCNC4=O)CC2  0.713 µM
26. O=C1NCCn2ccc3cccc1c32  0.7 µM
27. CC(C)N(Cc1nc2cccc3c2n1CCNC3=O)C(C)C  0.647 µM
28. O=C1NCCn2c(-c3cccc(C(=O)N4CCN(Cc5ccc6c(c5)OCO6)CC4)c3)nc3cccc1c32  0.635 µM
29. O=C1NCCn2c(CN3CCCCCCC3)nc3cccc1c32  0.6 µM
30. CC(C)(C)OC(=O)N1CCN(C(=O)c2cccc(-c3nc4cccc5c4n3CCNC5=O)c2)CC1  0.583 µM
31. CCN(CC)Cc1nc2cccc3c2n1CCNC3=O  0.535 µM
32. O=C1NCCn2c(CN3CCOCC3)nc3cccc1c32  0.523 µM
33. CN(C)CCCN(C)Cc1nc2cccc3c2n1CCNC3=O  0.473 µM
34. CN(Cc1nc2cccc3c2n1CCNC3=O)C1CCCCC1  0.46 µM
35. CCN(CC)CCNC(=O)c1cccc(-c2nc3cccc4c3n2CCNC4=O)c1  0.449 µM
36. O=C(NCCN1CCOCC1)c1cccc(-c2nc3cccc4c3n2CCNC4=O)c1  0.448 µM
37. COC(=O)C1CN(Cc2nc3cccc4c3n2CCNC4=O)CCC1=O (stereo not shown)  0.441 µM
38. O=C1NCCn2c(COCc3ccccc3)nc3cccc1c32  0.434 µM
39. O=C1NCCn2c(-c3cccc(C(=O)N4CC5CC4CN5Cc4ccccc4)c3)nc3cccc1c32 (stereo not shown)  0.405 µM
40. O=C(NCCN1CCCCC1)c1cccc(-c2nc3cccc4c3n2CCNC4=O)c1  0.376 µM
41. COC(=O)C1CN(C(=O)c2cccc(-c3nc4cccc5c4n3CCNC5=O)c2)CCC1=O (stereo not shown)  0.375 µM
42. O=C1NCCc2c[nH]c3cccc1c23  0.366 µM
43. CC(C)(C)OC(=O)[C@@H]1CCCN1Cc1nc2cccc3c2n1CCNC3=O  0.349 µM
44. O=c1[nH]c2ccc(NCCN3CCOCC3)nc2c2ccccc12  0.339 µM
45. O=C1NCCn2c(CN3CCCCC3CO)nc3cccc1c32 (stereo not shown)  0.337 µM
46. O=C1NCCn2c(C=C(c3ccccc3)c3ccccc3)nc3cccc1c32  0.33 µM
47. O=C1NCCn2c(-c3ccccc3F)nc3cccc1c32  0.329 µM
48. O=C1CCN(Cc2nc3cccc4c3n2CCNC4=O)CC1  0.329 µM
49. O=C1NCCn2c(-c3cc(O)c(O)c(O)c3)nc3cccc1c32  0.324 µM
50. O=C(NCCN1CCCC1)c1cccc(-c2nc3cccc4c3n2CCNC4=O)c1  0.321 µM
51. O=C1NCCn2cnc3cccc1c32  0.299 µM
52. O=C1NCCn2c(-c3ccc4ccccc4n3)nc3cccc1c32  0.299 µM
53. O=c1[nH]c2cc(Cl)cnc2c2ccccc12  0.292 µM
54. CN(C)CCN(C)Cc1nc2cccc3c2n1CCNC3=O  0.288 µM
55. CN(Cc1nc2cccc3c2n1CCNC3=O)c1ccccc1  0.28 µM
56. Cn1cc(-c2nc3cccc4c3n2CCNC4=O)c2ccccc21  0.268 µM
57. CC(C)(C)OC(=O)N1CCN(Cc2nc3cccc4c3n2CCNC4=O)CC1  0.266 µM
58. CN(C)CCNC(=O)c1cccc(-c2nc3cccc4c3n2CCNC4=O)c1  0.246 µM
59. CN(C)CCCOc1ccc(-c2nc3cccc4c3n2CCNC4=O)cc1  0.237 µM
60. COCc1nc2cccc3c2n1CCNC3=O  0.227 µM
61. O=C1NCCn2c(CN(Cc3ccccc3)Cc3ccccc3)nc3cccc1c32  0.218 µM
62. COc1ccc2[nH]c(=O)c3ccccc3c2n1  0.216 µM
63. CCCN(CCC)Cc1nc2cccc3c2n1CCNC3=O  0.204 µM
64. O=C1NCCn2c(-c3ccc(-c4cccc(Cl)c4)o3)nc3cccc1c32  0.2 µM
65. CN(C)CCCN(C)C(=O)c1cccc(-c2nc3cccc4c3n2CCNC4=O)c1  0.199 µM
66. O=C1NCCn2c(CN3CCc4ccccc4C3)nc3cccc1c32  0.193 µM
67. O=C1NCCn2c(-c3ccc(O)cc3O)nc3cccc1c32  0.186 µM
68. Nc1cnc2c(c1)[nH]c(=O)c1ccccc12  0.18 µM
69. CCN(CC)CCCNC(=O)c1cccc(-c2nc3cccc4c3n2CCNC4=O)c1  0.179 µM
70. CC(C)N1CCN(c2ccc3[nH]c(=O)c4ccccc4c3n2)CC1  0.179 µM
71. O=c1[nH]c2ccc(N3CCN(CC4CCCO4)CC3)nc2c2ccccc12 (stereo not shown)  0.179 µM
72. O=C1NCCn2c(-c3cccnc3)nc3cccc1c32  0.168 µM
73. CN(C)CC(=O)Nc1cnc2c(c1)[nH]c(=O)c1ccccc12  0.165 µM
74. O=C(O)c1cccc(-c2nc3cccc4c3n2CCNC4=O)c1  0.155 µM
75. CN(C)CCN(Cc1ccccc1)Cc1nc2cccc3c2n1CCNC3=O  0.153 µM
76. Cn1cc2c3c(cccc31)C(=O)NN=C2  0.146 µM
77. O=C1NCCn2c(-c3ccc(-c4ccccc4Cl)o3)nc3cccc1c32  0.145 µM
78. COc1ccc(/C=C/c2nc3cccc4c3n2CCNC4=O)cc1  0.142 µM
79. O=C(CN1CCC(N2CCCC2)CC1)Nc1ccc2[nH]c(=O)c3ccccc3c2n1  0.142 µM
80. O=C1NN=C(CN2CCN(Cc3ccccc3)CC2)c2c[nH]c3cccc1c23  0.141 µM
81. O=C(CN1CCC(N2CCCC2)CC1)Nc1cnc2c(c1)[nH]c(=O)c1ccccc12  0.134 µM
82. CC(Cc1nc2cccc3c2n1CCNC3=O)c1ccccc1 (stereo not shown)  0.13 µM
83. COc1ccc(CC(C)c2nc3cccc4c3n2CCNC4=O)cc1 (stereo not shown)  0.128 µM
84. COc1ccc(N(C)Cc2nc3cccc4c3n2CCNC4=O)cc1  0.121 µM
85. O=C1NCCn2c(CN3CCN(Cc4ccc5c(c4)OCO5)CC3)nc3cccc1c32  0.12 µM
86. O=C1NCCn2c(CN3CC4CC3CN4Cc3ccccc3)nc3cccc1c32 (stereo not shown)  0.115 µM
87. O=c1[nH]c2ccc(O)nc2c2ccccc12  0.114 µM
88. CCC(=O)Nc1cnc2c(c1)[nH]c(=O)c1ccccc12  0.111 µM
89. CCOC(=O)[C@@H]1C[C@H]1c1nc2cccc3c2n1CCNC3=O  0.108 µM
90. O=C1NCCn2c(-c3ccco3)nc3cccc1c32  0.108 µM
91. O=C1NCCn2c(-c3cccc(Br)c3)nc3cccc1c32  0.106 µM
92. O=C1NN=C(CN2CCC(N3CCCC3)CC2)c2c[nH]c3cccc1c23  0.098 µM
93. CN(C)CC(=O)Nc1ccc2[nH]c(=O)c3ccccc3c2n1  0.098 µM
94. O=C1NCCn2c(-c3ccc(Br)s3)nc3cccc1c32  0.094 µM
95. O=C1NCCn2c(-c3cc(O)cc(O)c3)nc3cccc1c32  0.089 µM
96. CC(C)N1CCN(CC(=O)Nc2cnc3c(c2)[nH]c(=O)c2ccccc23)CC1  0.086 µM
97. O=C1NCCn2c(-c3cccc(Cl)c3)nc3cccc1c32  0.08 µM
98. O=C1NN=Cc2c(-c3ccc(F)cc3)[nH]c3cccc1c23  0.073 µM
99. O=C1NCCn2c(/C=C/c3ccccc3)nc3cccc1c32  0.071 µM
100. CC(=O)OCc1ccc(-c2nc3cccc4c3n2CCNC4=O)o1  0.068 µM
101. CN(C)Cc1nc2cccc3c2n1CCNC3=O  0.068 µM
102. O=C1NCCn2c(-c3cc(F)cc(F)c3)nc3cccc1c32  0.061 µM
103. CCN1CCN(CC2=NNC(=O)c3cccc4[nH]cc2c34)CC1  0.06 µM
104. O=C1NCCc2c(Br)[nH]c3cccc1c23  0.051 µM
105. Cn1c(-c2ccccc2)c2c3c(cccc31)C(=O)NN=C2  0.047 µM
106. O=c1[nH]c2ccc(N3CCNCC3)nc2c2ccccc12  0.045 µM
107. O=C1NCCn2c(C#Cc3ccccc3)nc3cccc1c32  0.044 µM
108. O=C1NN=C(CN2CCOCC2)c2c[nH]c3cccc1c23  0.037 µM
109. CN1CCN(CC2=NNC(=O)c3cccc4[nH]cc2c34)CC1  0.037 µM
110. CN(C)CCN(C)CC1=NNC(=O)c2cccc3[nH]cc1c23  0.035 µM
111. CCN(CC)CC1=NNC(=O)c2cccc3[nH]cc1c23  0.034 µM
112. O=C1NN=C(CN2CCCC2)c2c[nH]c3cccc1c23  0.033 µM
113. O=C1NN=C(CN2CCCCC2)c2c[nH]c3cccc1c23  0.027 µM
114. O=C1NN=Cc2c(Br)[nH]c3cccc1c23  0.026 µM
115. O=C1NN=C(c2ccccc2)c2c[nH]c3cccc1c23  0.021 µM
116. O=C1NCCn2c(-c3ccc([N+](=O)[O-])o3)nc3cccc1c32  0.021 µM
117. O=C1NN=Cc2c[nH]c3cccc1c23  0.018 µM
118. O=C1NN=Cc2c(-c3ccccc3)[nH]c3cccc1c23  0.01 µM
